Like-named read-outs stand apart in the source and are kept apart here.

From US5869477A, “β-methylcarbapenem derivatives, process for the preparation thereof and pharmaceutical composition comprising same” (priority 1995, dated 1999) come the findings set out here.

One data set has as its system S. pyogenes 308A. The data set is described as follows: agar plate dilution method, MIC. The format is cell-based, Streptococcus pyogenes. The settings on record: about 10^7 CFU/ml, 37° C., 18 hours. As for the experimental part:
(§1) The antibacterial activities of the β-methylcarbapenem compounds of the present invention prepared in the above Examples were determined in accordance with the agar plate dilution method(Hoechst 345). Specifically,about 10^7 CFU/ml of test bacteria(Hoechst standard strains) was inoculated to a Muller-Hinton agar medium containing serial double dilutions of the test compounds, i.e., compounds prepared in Examples 1 to 3, and incubated at 37° C. for 18 hours. Tribactam(EP 416953) and SUN-5555(Santory Co., Japan) were employed as control materials for carbapenem and penem, respectively. When the incubation was completed, the minimum inhibitory concentration of each test compounds was determined.

The next data set has as its system S. pyogenes 77A. Nature of the data set: agar plate dilution method, MIC. The format is cell-based, Streptococcus pyogenes. The settings on record: about 10^7 CFU/ml, 37° C., 18 hours. As for the experimental part:
as §1

Another data set has as its system S. faecium MD 8b. The data set is described as follows: agar plate dilution method, MIC. The format is cell-based, Streptococcus faecium. The conditions noted are these: about 10^7 CFU/ml, 37° C., 18 hours. How it is done: as §1
In a further data set the test system is E. coli 078. The data set is described as follows: agar plate dilution method, MIC. The format is cell-based. The settings on record: about 10^7 CFU/ml, 37° C., 18 hours. How it is done:
as §1

A further data set relates to E. coli 1507 E. The data set is described as follows: agar plate dilution method, MIC. The conditions noted are these: about 10^7 CFU/ml, 37° C., 18 hours. The format is cell-based. As for the experimental part:
as §1

The subject of the next data set is E. coli DC 0. Nature of the data set: agar plate dilution method, MIC. The conditions noted are these: about 10^7 CFU/ml, 37° C., 18 hours. The format is cell-based. As for the experimental part:
as §1

The subject of another data set is E. coli TEM. Nature of the data set: agar plate dilution method, MIC. The format is cell-based. The conditions noted are these: about 10^7 CFU/ml, 37° C., 18 hours. As for the experimental part:
as §1

Another data set relates to K. oxytoca 1082 E. Nature of the data set: agar plate dilution method, MIC. The format is cell-based. The conditions noted are these: about 10^7 CFU/ml, 37° C., 18 hours. How it is done:
as §1

The next data set has as its system S. aureus 285. Nature of the data set: agar plate dilution method, MIC. The format is cell-based. The conditions noted are these: about 10^7 CFU/ml, 37° C., 18 hours. As for the experimental part:
as §1

The subject of another data set is S. aureus 503. Nature of the data set: agar plate dilution method, MIC. The settings on record: about 10^7 CFU/ml, 37° C., 18 hours. The format is cell-based. How it is done:
as §1

For another data set, the system named is S. aureus SG 511. Nature of the data set: agar plate dilution method, MIC. The format is cell-based. The conditions noted are these: about 10^7 CFU/ml, 37° C., 18 hours. As for the experimental part: as §1
For a further data set, the system named is S. typhimurium. The data set is described as follows: agar plate dilution method, MIC. The format is cell-based. The conditions noted are these: about 10^7 CFU/ml, 37° C., 18 hours. As for the experimental part: as §1
A further data set has as its system P. aeruginosa 1592 E. The data set is described as follows: agar plate dilution method, MIC. The format is cell-based, Pseudomonas aeruginosa. The conditions noted are these: about 10^7 CFU/ml, 37° C., 18 hours. As for the experimental part:
as §1

A further data set deals with P. aeruginosa 1771 M. The data set is described as follows: agar plate dilution method, MIC. The format is cell-based, Pseudomonas aeruginosa. The settings on record: about 10^7 CFU/ml, 37° C., 18 hours. How it is done:
as §1

In a further data set the test system is P. aeruginosa 1771. Nature of the data set: agar plate dilution method, MIC. The format is cell-based, Pseudomonas aeruginosa. The conditions noted are these: about 10^7 CFU/ml, 37° C., 18 hours. How it is done:
as §1

A further data set deals with P. aeruginosa 9027. Nature of the data set: agar plate dilution method, MIC. The format is cell-based, Pseudomonas aeruginosa. The conditions noted are these: about 10^7 CFU/ml, 37° C., 18 hours. How it is done:
as §1

The next data set has as its system K. aerogenes 1522 E. Nature of the data set: agar plate dilution method, MIC. The format is cell-based, Klebsiella aerogenes. The conditions noted are these: about 10^7 CFU/ml, 37° C., 18 hours. How it is done:
as §1

The test system of another data set is E. cloacae 1321 E. The data set is described as follows: agar plate dilution method, MIC. The settings on record: about 10^7 CFU/ml, 37° C., 18 hours. The format is cell-based, Enterobacter cloacae. As for the experimental part: as §1
Another data set relates to E. cloacae P 99. Nature of the data set: agar plate dilution method, MIC. The format is cell-based, Enterobacter cloacae. The conditions noted are these: about 10^7 CFU/ml, 37° C., 18 hours. As for the experimental part:
as §1

A short description of data set [1]: bioavailability indices in infected mice, one-compartment oral model. On the set-up: species or system I.C.R. mouse. The conditions noted are these: in vivo; for AUC / p.o./s.c. / Cmax / Tmax / half-life: 40 mg/kg; for pharmacokinetics values and p.o. absorption versus controls (in words) / Cmax / Tmax / half-life: po. As for the experimental part:
The in vivo antibacterial activities and pharmacological activities of the β-methylcarbapenem compounds of the present invention were tested as follows. Specifically, 4 to 5 week-old I.C.R. mouse, each weighing 22 to 25 g and infected with Streptococcus pyogenes 77A, were administered per os with the solutions of the compounds of Examples 5 and 9 dissolved in 10% DMSO, at a dosage of 40 mg/kg body weight. The bioavailability indices, e.g., Cmax, Tmax, t1/2, AUC and p.o./s.c. were determined in accordance with one-compartment oral model method(Drug Metabolism Reviews, 17, 331-348(1986)). The one-compartment oral model was prepared by curve fitting using Gauss-Newto method and calculation using PKCALC computer program.

`CC(C)[C@@H](O)C1=C(C(=O)O)N2C(=O)[C@H]([C@@H](C)O)[C@H]2[C@H]1C` [Example 1, potassium (1S, 5R, 6S)-2-[(1R)-1-hydroxy-2-methylpropyl]-6-[(1R)-1-hydroxyethyl]-1-methyl-2-carbapenem-3-carboxylate]: the minimum inhibitory concentration in the data set with S. pyogenes 308A is 0.013; in the data set with S. pyogenes 77A, 0.013; in the data set on S. faecium MD 8b, 3.125; in the data set with E. coli 078, 0.049; in the data set with E. coli 1507 E, 0.049; in the data set on E. coli DC 0, 0.195. Further, the minimum inhibitory concentration is listed as 0.195 with E. coli TEM; 1.563 in the data set on K. oxytoca 1082 E; 0.098 with S. aureus 285; 0.098 in the data set on S. aureus 503; 0.098 with S. aureus SG 511; 0.098 in the data set on S. typhimurium. Also, the minimum inhibitory concentration with P. aeruginosa 1592 E is on record as greater than 100; in the data set with P. aeruginosa 1771 M, 0.781; in the data set on P. aeruginosa 1771, 100; in the data set on P. aeruginosa 9027, greater than 100; in the data set with K. aerogenes 1522 E, 0.391; in the data set with E. cloacae 1321 E, 0.098.

For `C[C@@H](O)[C@H]1C(=O)N2C(C(=O)O)=C([C@H](O)C3CC3)[C@H](C)[C@H]12` [Example 2, potassium (1S, 5R, 6S)-2-[(R)-(cyclopropyl) hydroxymethyl]-6-[(1R)-1-hydroxyethyl]-1-methyl-2-carbapenem-3-carboxylate], the minimum inhibitory concentration in the data set on S. pyogenes 308A was 0.007; with S. pyogenes 77A it was 0.007; with S. faecium MD 8b, 0.781; in the data set with E. coli 078, 0.098; in the data set on E. coli 1507 E, 0.049; with E. coli DC 0, 0.098. For the same compound, the minimum inhibitory concentration in the data set with E. coli TEM worked out at 0.098; in the data set on K. oxytoca 1082 E it was 0.781; in the data set on S. aureus 285, 0.049; in the data set on S. aureus 503, 0.049; in the data set on S. aureus SG 511 it was 0.049; in the data set on S. typhimurium it was 0.098. For the same compound, the minimum inhibitory concentration in the data set on P. aeruginosa 1592 E is on record as 100.0; in the data set on P. aeruginosa 1771 M, 1.563; with P. aeruginosa 1771, 100.0; in the data set on P. aeruginosa 9027, 100.0; in the data set on K. aerogenes 1522 E, 0.195; in the data set on E. cloacae 1321 E it was 0.098.

Regarding `C[C@@H](O)[C@H]1C(=O)N2C(C(=O)O)=C([C@H](O)C3CCCC3)[C@H](C)[C@H]12` [Example 3, potassium (1S, 5R, 6S)-2-[(R)-(cyclopentyl)hydroxymethyl]-6-[(1R)-1-hydroxyethyl]-1-methyl-2-carbapenem-3-carboxylate], the minimum inhibitory concentration is recorded as 0.004 with S. pyogenes 308A; 0.007 in the data set with S. pyogenes 77A; 0.781 in the data set on S. faecium MD 8b; 0.195 with E. coli 078; 0.098 with E. coli 1507 E; 0.391 in the data set on E. coli TEM. For the same compound, the minimum inhibitory concentration in the data set on K. oxytoca 1082 E is 1.563; in the data set on S. aureus 285, 0.098; in the data set with S. aureus 503, 0.098; in the data set with S. aureus SG 511, 0.098; in the data set on S. typhimurium, 0.098; in the data set on P. aeruginosa 1592 E it was greater than 100.0. Moreover, the minimum inhibitory concentration was 1.563 with P. aeruginosa 1771 M; greater than 100.0 in the data set with P. aeruginosa 1771; greater than 100.0 with P. aeruginosa 9027; 0.781 in the data set on K. aerogenes 1522 E; 0.391 in the data set on E. cloacae 1321 E; 6.250 in the data set with E. cloacae P 99.

The term Cmax denotes the peak of the concentration-time curve. By Tmax is commonly meant the time at which the peak concentration occurs. As a reminder, the half-life is the time needed for the level to fall by half in the phase considered. Lower therefore signals fast loss. Turning to `Cc1oc(=O)oc1COC(=O)C1=C([C@H](O)C(C)C)[C@H](C)[C@@H]2[C@@H]([C@@H](C)O)C(=O)N12` [Example 5, (5-methyl-2-oxo-1,3-dioxolen-4-yl)methyl (1S, 5R, 6S)-2-[(1R)-1-hydroxy-2-methylpropyl]-6-[(1R)-1-hydroxyethyl]-1-methyl-2-carbapenem-3-carboxylate], in data set [1] (mouse), the AUC is on record as 3.80; the p.o./s.c. came to 32.50%; the “pharmacokinetics values and p.o. absorption versus controls (in words)” value is “superior pharmacokinetics values and p.o. absorption over the controls”; the Cmax was 8770 ng/mL. Besides, in data set [1] (mouse), the time of peak concentration (Tmax) was found to be 10.2 min and the half-life is 16.2 min.

For `CC(C)OC(=O)OC(C)OC(=O)C1=C([C@H](O)C(C)C)[C@H](C)[C@@H]2[C@@H]([C@@H](C)O)C(=O)N12` (stereo partly drawn) [Example 9, isopropyloxycarbonyloxy-1-ethyl (1S, 5R, 6S)-2-[(1R)-1-hydroxy-2-methylpropyl]-6-[(1R)-1-hydroxyethyl]-1-methyl-2-carbapenem-3-carboxylate], in data set [1] (mouse), the AUC was 6.78; the p.o./s.c. is given as 32.42%; the “pharmacokinetics values and p.o. absorption versus controls (in words)” value is “superior pharmacokinetics values and p.o. absorption over the controls”; the peak concentration (Cmax) amounted to 10400 ng/mL. In data set [1] (mouse), the time to peak (Tmax) came out at 19.8 min and the half-life is 19.8 min.

As to `C[C@@H](O)[C@H]1C(=O)N2C(C(=O)O)=C([C@H]3CCCO3)S[C@H]12` [SUN-5555, reference compound], the minimum inhibitory concentration with S. pyogenes 308A worked out at 0.013; with S. pyogenes 77A it was 0.007; in the data set on S. faecium MD 8b it was 6.250; in the data set on E. coli 078 it was 0.195; with E. coli 1507 E, 0.195; in the data set with E. coli DC 0, 0.781. The minimum inhibitory concentration with E. coli TEM is reported as 0.391; in the data set on K. oxytoca 1082 E, 0.391; in the data set with S. aureus 285, 0.098; in the data set on S. aureus 503, 0.098; in the data set on S. aureus SG 511, 0.098; with S. typhimurium it was 0.195. For the same compound, the minimum inhibitory concentration was greater than 100.0 in the data set with P. aeruginosa 1592 E; 3.125 with P. aeruginosa 1771 M; greater than 100.0 in the data set with P. aeruginosa 1771; greater than 100.0 in the data set with P. aeruginosa 9027; 0.391 in the data set on K. aerogenes 1522 E; 0.391 in the data set with E. cloacae 1321 E. For the same compound, the minimum inhibitory concentration in the data set with E. cloacae P 99 is on record as 1.563. For the same compound, the maximum concentration (Cmax) in data set [1] (I.C.R. mouse infected with S. pyogenes 77A, per os, 10% DMSO, read-out: Cmax) came to 2640 ng/mL. Further, in [1] (I.C.R. mouse infected with S. pyogenes 77A, per os, 10% DMSO, read-out: Tmax), the Tmax came out at 25.2 min. The p.o./s.c. in data set [1] (mouse) worked out at 22.71%. The half-life in data set [1] (mouse) is 22.8 min.
